Literature values in patent US20230240292A1, “METHOD FOR GROWING PLANTS” (Taminco BV, priority 2020, published 2023).
Like-named read-outs stand apart in the source and are kept apart here.

Columns and labels:
cauliflower seedlings = settings: seedlings treated with 20 mM BABA

Structure (SMILES)	Reduction in growth of cauliflower seedlings (cauliflower seedlings) [%]	Root growth repression (in words) (Tomato plants; seedlings treated with as low as 0.5 mM BABA)	Root growth repression (in words) (Tomato plants; seedlings treated with as low as 0.25 mM JA)
CC(N)CC(=O)O (racemic) [BABA, beta-aminobutyric acid]	14.7	root growth repression was observed	–
CC/C=C\C[C@H]1C(=O)CC[C@@H]1CC(=O)O [JA, jasmonic acid]	–	–	root growth repression was observed
